Patent US6395762B1, “Phenyl amino squarate and thiadiazole dioxide beta-3 adrenergic receptor agonists” (American Home Products Corporation, priority 2000, dated 2002)

Columns and labels:
human β3-AR = target: T1, human β3-AR (Homo sapiens, UniProt P13945); assay: cAMP accumulation (SPA) in CHO cells transfected with human β3-AR; format: cell-based; conditions: CHO cells transfected with human β3-AR; for EC50: cAMP by SPA, 30 min at 37° C., 10^−9 M to 10^−5 M, read-out: EC50(β3); for IA(β3): maximal response of compound relative to maximal response of isoproterenol at 10^−5 M
T1 construct: Full-length β3-AR clones (402 amino acids) containing the last 6 amino acids of hβ3-AR; expressed in transfected cells; host or cells: CHO (Chinese hamster ovary) cells
T1 sequence (P13945 whole entry): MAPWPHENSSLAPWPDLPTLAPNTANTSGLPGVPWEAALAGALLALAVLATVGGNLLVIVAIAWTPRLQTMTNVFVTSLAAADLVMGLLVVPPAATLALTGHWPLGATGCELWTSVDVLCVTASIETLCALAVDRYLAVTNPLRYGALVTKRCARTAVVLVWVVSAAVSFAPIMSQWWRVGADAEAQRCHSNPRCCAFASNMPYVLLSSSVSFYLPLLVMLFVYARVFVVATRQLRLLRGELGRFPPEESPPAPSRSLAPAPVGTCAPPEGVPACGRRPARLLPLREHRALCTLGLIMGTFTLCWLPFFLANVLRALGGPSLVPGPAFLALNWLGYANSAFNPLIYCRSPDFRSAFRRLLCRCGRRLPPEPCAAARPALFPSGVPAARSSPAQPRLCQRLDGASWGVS
Method: The ability of the compounds of this invention to treat or inhibit disorders related to insulin resistance or hyperglycemia was confirmed with representative compounds of this invention in the following standard pharmacological test procedures, which measured the binding selectivity of the β1-, β2-, and β3-AR. Binding to the receptors was measured in Chinese Hamster ovary (CHO) cells that were transfected with β1-, β2-, and β3-AR's. The following briefly summarizes the procedures used and results obtained.
Cloning of Human β3-AR Genomic DNA: cDNA was constructed by ligating four polymerase chain reaction (PCR) products using the following primers: an ATG-Narl fragment, sense primer 5′-[…]3′ and anti-sense primer 5′[…]3′; a Narl-Accl fragment, 5′[…]3′ as sense and 5′[…]3′ as anti-sense primer; an Accli—Styl fragment, sense primer 5′[…]3′ and anti-sense primer 5′[…]3′ and a Styl-TAG fragment, with sense primer 5′ […]3′ and anti-sense primer 5′ […]3′ . The corresponding primer sequences are described in Mantzoros, C. S., et.al., Diabetes, 1996, 45, 909-914. The four fragments are ligated into a pUC 18 plasmid (Gibco-BRL) and sequenced. Full-length β3-AR clones (402 amino acids) containing the last 6 amino acids of hβ3-AR are prepared with the β3-βARpcDNA3 from ATTC.
Binding Procedure: Clones expressing receptor levels of 70 to 110 fmoles/mg protein were used in the test procedures. CHO cells were grown in 24-well tissue culture plates in Dulbecco's Modified Eagle Media with 10% fetal bovine serum, MEM non-essential amino acids, Penicillin—Streptomycin and Geneticin. On the day of test procedure, growth medium was replaced with preincubation media (Dulbecco's Modified Eagle Media) and incubated for 30 minutes at 37° C. Pre-incubation medium was replaced with 0.2 ml treatment medium containing DMEM media containing 250 μM IBMX (isobutyl-1-methylxantine) plus 1 mM ascorbic acid with test compound dissolved in DMSO. Test compounds were assayed over a concentration range of 10^−9 M to 10^−5 M for β3-AR transfected cells and 10^−8 to 10^−4 M for β1-AR and β2-AR transfected cells. Isoproterenol (10^−5 M) was used as an internal standard for comparison of activity. Cells were incubated at 37° C. on a rocker for 30 min with the β3-AR transfected cells and 15 min with β1-AR and β2-AR transfected cells. Incubation was stopped by the addition of 0.2N HCl and the acid was neutralized with 2.5N NaOH. The plates, containing the cells and neutralized media, were stored at −20° C. until ready to test for cAMP using the SPA test kit (Amersham).
Data Analysis and Results: Data collected from the SPA test procedure were analyzed as percent of the maximal isoproterenol response at 10^−5 M. Activity curves were plotted using the SAS statistical and graphics software.

Row | Compound | EC50 (human β3-AR) | IA(β3) (human β3-AR) | melting point
1 | CCCCCCCCNC1=NS(=O)(=O)N=C1Nc1cccc(CC(C)NCC(O)c2cccc(Cl)c2)c1 [Compound 2, (1R)-1-(3-Chloro-phenyl)-2-{1-methyl-2-[3-(4-octylamino-1,1-dioxo-1H-1-.lambda(6).-[1,2,5]thiadiazol-3-ylamino)-phenyl-]-ethylamino}-ethanol] | 198 nM | 0.42 | 90 to 96 °C
2 | CC(Cc1ccc(NC2=NS(=O)(=O)N=C2NCCc2ccc(F)cc2)cc1)NC[C@H](O)COc1ccc(O)cc1 (stereo partly drawn) [Compound 37] | 6 nM | 0.87 | 126 to 131 °C
3 | CCCCCCCCNc1c(Nc2ccc(CC(C)NC[C@H](O)COc3ccccc3)cc2)c(=O)c1=O (stereo partly drawn) [Compound 24, 3-{4-[2-((2S)-2-Hydroxy-3-phenoxy-propylamino)-propyl]-phenylamino}-4-octylamino-cyclobut-3-ene-1,2-dione] | 81 nM | 0.41 | 146 to 155 °C
